Data reported in ChEMBL document CHEMBL1151097, “Phenyl-glycinol based NK1 receptor antagonists towards the minimum pharmacophore” (Bioorg Med Chem Lett, 1995).

Tested on: not listed separately
Test: pKa value was determined
Type: physicochemical
For `N[C@H](COCc1cc(C(F)(F)F)cc(C(F)(F)F)c1)c1ccccc1`, the pKa was 7.93.

Molecular target: Substance-P receptor (Homo sapiens, UniProt P25103)
Sequence (P25103 whole entry): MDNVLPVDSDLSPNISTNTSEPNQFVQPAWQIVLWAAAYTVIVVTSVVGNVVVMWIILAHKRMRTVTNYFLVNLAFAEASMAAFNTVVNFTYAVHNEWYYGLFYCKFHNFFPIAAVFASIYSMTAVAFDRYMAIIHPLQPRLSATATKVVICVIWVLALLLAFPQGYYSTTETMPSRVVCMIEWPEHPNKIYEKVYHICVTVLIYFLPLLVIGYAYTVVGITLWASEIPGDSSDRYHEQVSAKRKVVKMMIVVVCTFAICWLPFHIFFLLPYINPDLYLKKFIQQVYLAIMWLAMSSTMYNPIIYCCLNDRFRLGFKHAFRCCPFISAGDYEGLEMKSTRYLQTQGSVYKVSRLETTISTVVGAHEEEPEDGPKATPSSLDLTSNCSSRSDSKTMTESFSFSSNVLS
Test: Binding affinity to human Tachykinin receptor 1
Compound `Cc1cc(COC[C@@H](N)c2ccccc2)cc(C(C)(C)C)c1` has an IC50 of 0.0137 µM.
Work on `CN(CC(N)=O)[C@H](COCc1cc(C(F)(F)F)cc(C(F)(F)F)c1)c1ccccc1` yielded an IC50 of 0.0058 µM.
For `NC(=O)CN[C@H](COCc1cc(C(F)(F)F)cc(C(F)(F)F)c1)c1ccccc1`, the IC50 was 0.008 µM.
With `Cc1cc(Br)cc(COC[C@@H](N)c2ccccc2)c1` the IC50 was 0.02 µM.
Compound `N[C@H](COCc1cc(Cl)cc(Cl)c1)c1ccccc1` has an IC50 of 0.049 µM.
`CC(N)(COCc1cc(C(F)(F)F)cc(C(F)(F)F)c1)c1ccccc1` (stereo not given) gave an IC50 of 0.03 µM.
Work on `N[C@H](COCc1cc(C(F)(F)F)cc(C(F)(F)F)c1)c1ccccc1` yielded an IC50 of 0.013 µM.
For `CC(OCC(N)c1ccccc1)c1cc(C(F)(F)F)cc(C(F)(F)F)c1` (stereo not given), the IC50 was 0.0043 µM.
Work on `COc1cc(C)cc(COC[C@@H](N)c2ccccc2)c1` yielded an IC50 of 0.135 µM.
Work on `CC(OCc1cc(C(F)(F)F)cc(C(F)(F)F)c1)C(N)c1ccccc1` (single isomer, unassigned; diastereomer A) yielded an IC50 of 0.095 µM.
With `CC(OCc1cc(C(F)(F)F)cc(C(F)(F)F)c1)C(N)c1ccccc1` (single isomer, unassigned; diastereomer B) the IC50 was 0.007 µM.

Molecular target: Voltage-gated L-type calcium channel (Homo sapiens, UniProt Q13936+Q13698+Q01668+O60840)
Test: Inhibition of binding to L-type [Ca2+] channel
Type: protein assay
With `CN(CC(N)=O)[C@H](COCc1cc(C(F)(F)F)cc(C(F)(F)F)c1)c1ccccc1` the IC50 was over 10 µM.
Work on `NC(=O)CN[C@H](COCc1cc(C(F)(F)F)cc(C(F)(F)F)c1)c1ccccc1` yielded an IC50 of 2.3 µM.
Work on `N[C@H](COCc1cc(C(F)(F)F)cc(C(F)(F)F)c1)c1ccccc1` yielded an IC50 of 0.58 µM.
